Measurements: patent US4831029A, “Condensed cyclic triazole derivatives, pharmaceutical compositions and use” (priority 1986, dated 1989)
Where a name gives a salt, the structure may show the parent alone.

Legend:
Type in all cases: in vivo
[1] = Spasmolytic effect (inhibition of tetracor spasms); settings: for ED50: inhibition of tetracor spasms
Excerpt: (§1) The following test methods are used: Motility inhibition test: J. Borsy, E. Csanyi, J. Lazar: J. Arch. Int. Pharmacodyn. 124, 1-2 (1960); Inhibition of tetracor spasms: R. Benzinger, D. Hane: Arch. Int Pharmacodyn. 167, 245-249 (1967).

[2] = Yohimbine potentiating effect
Method: The yohimbine potentiating effect is determined by the method of R. M. Quinton: Brit. […] Scand.

[3] = Motility inhibiting effect; settings: for Motility inhibiting effect T.I. (therapeutical index): motility inhibition; for ED50: read-out: Motility inhibiting effect ED50
Excerpt: as §1

[4] = Hexobarbital narcosis potentiating effect; settings: for Hexobarbital narcosis potentiating effect T.I. (therapeutical index): narcosis potentiation; for ED50: positive = narcosis time lengthened to at least 2.5-fold of control
Method: In the hexobarbital narcosis potentiating test those animals are regarded as showing positive reaction in which the average narcosis time is lengthened to at least 2.5-fold of that of the control group.
The ED50 values are calculated from the data thus transformed.

O=c1c2c(n(CCN3CCCCC3)c3nc(N4CCOCC4)nn13)CCN(Cc1ccccc1)C2 [Example 18, 7-Benzyl-2-morpholino-10-(2-piperidinoethyl)-6,7,8,9-tetrahydro-pyrido[4,3-d]-1,2,4-triazolo[1,5-a]pyrimidine-5(10H)-one]
Spasmolytic effect T.I. (therapeutical index) [1]: 6.6
ED50 [1]: 150 mg/kg

CN(C)CCC=C1c2ccccc2CCc2ccccc21 [Amitriptilin, reference compound]
ED50 ([2]; method of Quinton, read-out: Yohimbin potentiating effect ED50): 12.5 mg/kg

O=c1c2c(n(CCN3CCCC3)c3nc(N4CCOCC4)nn13)CN(Cc1ccccc1)CC2 [Example 20, 8-Benzyl-2-morpholino-10-(2-pyrrolidinoethyl)-6,7,8,9-tetrahydro-pyrido[3,4-d]-1,2,4-triazolo[1,5-a]pyrimidine-5(10H)-one]
Spasmolytic effect T.I. (therapeutical index) [1]: 6.5
ED50 [1]: 155 mg/kg

CSc1nc2n(CCCN3CCOCC3)c3c(c(=O)n2n1)CN(Cc1ccccc1)CC3 [Example 19g, 7-Benzyl-2-methylthio-10-(3-morpholino-propyl)-6,7,8,9-tetrahydro-pyrido[4,3-d]-1,2,4-triazolo[1,5-a]pyrimidine-5(10H)-one fumarate]
Spasmolytic effect T.I. (therapeutical index) [1]: 8.5
ED50 [1]: 100 mg/kg

CN(C)CCCn1c2c(c(=O)n3nc(N4CCOCC4)nc13)CCN(Cc1ccccc1)C2 [Example 19, 8-Benzyl-10-(3-dimethylaminopropyl)-2-morpholino-6,7,8,9-tetrahydro-pyrido[3,4-d]-1,2,4-triazolo[1,5-a]pyrimidine-5(10H)-one]
Motility inhibiting effect T.I. (therapeutical index) [3]: 6.0
ED50 ([3]; motility inhibition test): 200 mg/kg
Hexobarbital narcosis potentiating effect T.I. (therapeutical index) [4]: 6.0
ED50 [4]: 200 mg/kg

CN1C(=O)OC(C)(C)C1=O [Trimetadion, reference compound]
ED50 [1]: 490 mg/kg

CCCC(C)(COC(N)=O)COC(N)=O [Meprobamat, reference compound]
Motility inhibiting effect T.I. (therapeutical index) [3]: 4.1
ED50 [3]: 270 mg/kg
Hexobarbital narcosis potentiating effect T.I. (therapeutical index) [4]: 4.1
ED50 [4]: 260 mg/kg

O=c1c2c(n(CCN3CCCCC3)c3nc(N4CCOCC4)nn13)CN(Cc1ccccc1)CC2 [Example 19c, 8-Benzyl-2-morpholino-10-(2-piperidino-ethyl)-6,7,8,9-tetrahydro-pyrido[3,4-d]-1,2,4-triazolo[1,5-a]pyrimidine-5(10H)-one]
Spasmolytic effect T.I. (therapeutical index) [1]: 6.7
ED50 [1]: 150 mg/kg
Yohimbin potentiating effect T.I. (therapeutical index) ([2]; T.I.=therapeutical index, yohimbine potentiation): 47
